Molecules are shown by their SMILES. ≈ marks a conversion by molar mass, not a printed value. Where “and” joins values, the source holds several entries; their conditions need not be identical. Identical values can stand only once. Like-named read-outs stand apart in the source and are kept apart here. Some results are limits rather than exact numbers.

One data set has as its system HSV-2BH. Nature of the data set: Antiviral activity in Vero E6 cells infected with HSV-2 (cytopathic effect). It is filed as cell-based.
Another data set concerns HSV-1L2. Briefly: Antiviral activity in Vero E6 cells infected with HSV-1 (cytopathic effect). It is filed as cell-based.
Data set [1] is described as follows: Cytotoxicity (MTT) in Vero E6 cells (HSV system). It is filed as cell-based. The note with it: African green monkey.
A short description of data set [2]: Cytotoxicity (MTT) in HELF cells. The note with it: human.
The subject of the next data set is B95-8 cells. Nature of the data set: Cytotoxicity (MTT) in B95-8 cells. It is filed as cell-based, cotton-top tamarin (Saguinus oedipus). The note with it: B95-8 cells, MTT, 72 h. Here is the method:
(§1) In each virus–cell system, cytotoxicity ranges were determined for polyphenols and reference compounds using MTT assay. Half-maximal cytotoxic concentrations (CC50) were determined from the curves of the dependence of the proportion of cells retaining viability after incubation with the compound (relative to the number of cells incubated in the absence of the compound) on its concentration, using nonlinear regression equations (4 parameters).
(§2) To assess cytotoxicity, B95-8 cells (5 × 10^5 per 1 mL) were incubated with polyphenols at 37 °C in an atmosphere of 5% CO2 for 72 h. The experiment was then carried out as described in Section 4.3.5.

A short description of data set [3]: in vitro. To be noted: dog.
In a further data set the test system is CMVTowne strain. Details: method as in ref 35 (Kim et al.). The note with it: human foreskin fibroblasts, ref 35 (Kim et al.); cited from earlier work.
For a further data set, the system named is EBVB95-8. Nature of the data set: Inhibition of EBV replication in B95-8 cells (EBV genomic DNA, real-time PCR). The data set is classed as cell-based, Epstein–Barr virus.
For data set [4], the system named is CMV (strain AD169). Briefly: Anti-CMV, post-inoculation setup: inhibition of intracellular replication (cells stained for viral proteins) in HELF. The data set is classed as cell-based, human cytomegalovirus.
Data set [5] has as its system CMV (strain AD169). Nature of the data set: Anti-CMV, pre-inoculation setup (plaques) in HELF. The data set is classed as cell-based, human cytomegalovirus. The note with it: Human betaherpesvirus 5, AD169, HELF.
In data set [6] the test system is CMV (strain AD169). Briefly: Anti-CMV, post-inoculation setup: inhibition of infectious virus production (plaques from conditioned medium) in HELF. The data set is classed as cell-based, human cytomegalovirus. The note with it: Human betaherpesvirus 5, AD169, HELF.
Data set [7] has as its system influenza A virus/California/07/2009 (H1N1) pdm. Nature of the data set: microbe, parasite or virus in culture. To be noted: for IC50: IAV H1N1pdm in MDCK cells. The data set is classed as cell-based.
Data set [8] relates to SARS-CoV-2 (HCoV-19/Russia/Moscow-PMVL-12/2020, EPI_ SL_572398). Nature of the data set: microbe, parasite or virus in culture. It is filed as cell-based. To be noted: for IC50: Severe acute respiratory syndrome coronavirus 2, Vero C1008; for Δ(lgTCID50)max: maximum difference in virus titers, Vero E6 cells.
The next data set concerns IAV. The note with it: cited from earlier work.
Data set [9] is described as follows: Cytotoxicity (MTT) in B95-8 cells. It is filed as cell-based, cotton-top tamarin (Saguinus oedipus). To be noted: cotton-top tamarin (Saguinus oedipus); B95-8 cells, MTT, 72 h; read-out: CC50. Here is the method:
as §1, §2

The nature of data set [10]: Cytotoxicity (MTT) in Vero E6 cells (SARS-CoV-2 system). The data set is classed as cell-based. To be noted: African green monkey. Here is the method: First, we performed biological testing of Rutan and geraniin against IAV and SARS-CoV-2. […] In addition, we evaluated geraniin against SARS-CoV-2 (in Vero E6 cells), and HIV-1 (in MT-4 cells) to confirm its activity. In all experiments three parameters were determined: concentrations of a drug that suppressed virus replication (IC50) or decreased cell viability (CC50) by 50% as well as their ratio—the selectivity index (SI, CC50/IC50 [123]).
as §1

For a further data set, the system named is SARS-CoV-2. Also on record: method as in doi:10.2139/ssrn.4000447. The note with it: geraniin isolated from Elaeocarpus sylvestris; cited from earlier work.
Data set [11] in a line: in vitro. To be noted: human.
The next data set deals with HIV-1. Also on record: method as in ref 103 (Notka et al.). To be noted: ref 103 (Notka et al.); cited from earlier work.
The next data set has as its system HIV-1 (HIVIIIB). Nature of the data set: microbe, parasite or virus in culture. The data set is classed as cell-based. To be noted: Human immunodeficiency virus 1, MT4; HIV-1 IIIB in MT-4 cells.
The subject of another data set is MDCK cells. To be noted: MTT.
In the next data set the test system is Vero E6 cells. Nature of the data set: Cytotoxicity (MTT) in Vero E6 cells (HSV system). The data set is classed as cell-based.
Where [12] appears, read: Human alphaherpesvirus 2, Vero C1008, HSV-2BH, Vero E6, 0.1 PFU/cell, read-out: IC50.
[13] abbreviates: Human alphaherpesvirus 1, Vero C1008, HSV-1L2, Vero E6, 0.1 PFU/cell, read-out: IC50.
Setting [14] is: Influenza A virus, H1N1, read-out: IC50.

As to `O=C(O)P(=O)(O)O` [Foscarnet, reference compound], the IC95 was 31.25 µg/mL (≈ 248 µM) in the data set with HSV-2BH (HSV-2BH, Vero E6, 0.1 PFU/cell) and 62.5 µg/mL (≈ 496 µM) in the data set with HSV-1L2 (HSV-1L2, Vero E6, 0.1 PFU/cell). Moreover, the IC50 in the data set with HSV-2BH (setting [12]) was 7.8 µg/mL (≈ 61.9 µM); in the data set with HSV-1L2 (setting [13]), 15.6 µg/mL (≈ 124 µM). This compound also returned a CC50 in [1] above 125 µg/mL.

Regarding `O=C(OC[C@H]1O[C@@H](OC(=O)c2cc(O)c(O)c(O)c2)[C@H](OC(=O)c2cc(O)c(O)c(O)c2)[C@@H](OC(=O)c2cc(O)c(O)c(O)c2)[C@@H]1OC(=O)c1cc(O)c(O)c(O)c1)c1cc(O)c(O)c(O)c1` [R5, 1,2,3,4,6-penta-O-galloyl-β-D-glucose], the IC95 with HSV-2BH and in the data set on HSV-1L2 was 25.0 µg/mL (≈ 26.6 µM) each time. For the same compound, the IC50 is 12.5 µg/mL (≈ 13.3 µM) in the data set with HSV-2BH (Human alphaherpesvirus 2, Vero C1008, read-out: IC50); above 10 µg/mL in the data set with EBVB95-8 (human gammaherpesvirus 4, B-95-8, 48 h, read-out: IC50, Inhibition on EBV Replication); 7.4 µg/mL (≈ 7.87 µM) in the data set on CMV (strain AD169) [4] (Human betaherpesvirus 5, AD169, HELF); 2.2 µg/mL (≈ 2.34 µM) in the data set with CMV (strain AD169) [5]; 6.4 µg/mL (≈ 6.8 µM) with CMV (strain AD169) [6]; 12.5 µg/mL (≈ 13.3 µM) with HSV-1L2 (Human alphaherpesvirus 1, Vero C1008, read-out: IC50). Moreover, in data set [7] (setting [14]), the IC50 amounted to 8.85 µg/mL (≈ 9.41 µM). In [2], this compound had a CC50 at 72 h of 150 µg/mL (≈ 159 µM). Besides, the CC50 in the data set with B95-8 cells is 85 µg/mL (≈ 90.4 µM); in “in vitro [3]”, 86.3 µg/mL (≈ 91.8 µM); in [1] it was 188 µg/mL (≈ 200 µM). For the same compound, the “activity against CMV (in words)” value in the data set with CMVTowne strain was “failed to detect the activity”. The “decrease of the level of intracellular viral DNA” value in the data set with EBVB95-8 (10 μg/mL, 48 h, B95-8 cells) came to 39 ± 5%. Also, the “reduction of the number of infected HELF” value with CMV (strain AD169) [4] was 71% and 86%. In data set [7], the “Δ(lgTCID50)max” value turned out to be 1.5.

Take `O=C1O[C@H]2C3OC(=O)c4cc(O)c(O)c(O)c4-c4c(cc(O)c(O)c4O)C(=O)OC[C@H]2O[C@@H](OC(=O)c2cc(O)c(O)c(O)c2)[C@@H]3OC(=O)c2cc(O)c(O)c3c2[C@@H]2C1=CC(=O)[C@](O)(O3)C2(O)O` [Geraniin, (1R,7R,26R,28S,29R,38R)-1,13,14,15,18,19,20,34,35,39,39-Undecahydroxy-2,5,10,23,31-pentaoxo-6,9,24,27,30,40-hexaoxaoctacyclo [34.3.1.0~4,38~.0~7,26~.0~8,29~.0~11,16~.0~17, 22~.0~32,37~]tetraconta-3,11,1 3,15,17,19,21,32,34,36-decaen-28-yl 3,4,5-trihydroxybenzoate]: the 95% effect concentration (IC95) with HSV-2BH (HSV-2BH, Vero E6, 0.1 PFU/cell) was 6.25 µg/mL (≈ 6.56 µM); with HSV-1L2 (HSV-1L2, Vero E6, 0.1 PFU/cell), 1.56 µg/mL (≈ 1.64 µM). In addition, the IC50 with HSV-2BH (setting [12]) was 0.39 µg/mL (≈ 0.409 µM); in data set [8] (SARS-CoV-2 in Vero E6 cells, read-out: IC50) it was 5.2 µg/mL (≈ 5.46 µM); in the data set with HIV-1, 0.46 µg/mL (≈ 0.483 µM); in the data set with HSV-1L2 (setting [13]), 1.2 µg/mL (≈ 1.26 µM); in data set [7] (setting [14]) it was 10.8 µg/mL (≈ 11.4 µM); in the data set with HIV-1 (HIVIIIB), 1.6 µg/mL (≈ 1.68 µM). Also, the “Δ(lgTCID50)max” value stood at 4.75 in data set [8] and 4.5 in data set [7]. Also, the “result for geraniin against IAV compared with IC50” value was 5.3 µg/mL with IAV (ref 72 (Joo et al.)) and 34 µg/mL with IAV (ref 96 (Choi et al.)). The CC50 at 72 h in data set [9] came to 63 µg/mL (≈ 66.1 µM). The CC50 worked out at 288 µg/mL (≈ 302 µM) in “in vitro [3]”, 65.4 µg/mL (≈ 68.7 µM) in [10], 41 µg/mL (≈ 43 µM) in the data set “in vitro [11]” and 65.9 µg/mL (≈ 69.2 µM) in data set [1]. Besides, the “activity against EBV (in words)” value in the data set on EBVB95-8 (B95-8 cells) is reported as “did not interfere”. In addition, in the data set on CMV (strain AD169) [4] (CMV AD169 in HELF), the “activity against CMV (in words)” value was “did not interfere”. The “concentration range suppressing virus replication” value with SARS-CoV-2 is 1 to 25 µg/mL.

On to `O=C(OC[C@H]1O[C@@H](OC(=O)c2cc(O)c(O)c(O)c2)[C@H](OC(=O)c2cc(O)c(O)c(O)c2)[C@@H](OC(=O)c2cc(O)c(O)c(OC(=O)c3cc(O)c(O)c(O)c3)c2)[C@@H]1OC(=O)c1cc(O)c(O)c(O)c1)c1cc(O)c(O)c(O)c1` [R6, 3-bis-O-galloyl-1,2,4,6-tetra-O-galloyl-β-D-glucose], for which the IC50 was 31.25 µg/mL (≈ 28.6 µM) in the data set on HSV-2BH (HSV-2BH, Vero E6, 0.1 PFU/cell); 25.0 µg/mL (≈ 22.9 µM) in the data set with HSV-1L2 (HSV-1L2, Vero E6, 0.1 PFU/cell); above 50 µg/mL in data set [7]. Further, the IC95 in the data set with HSV-2BH (HSV-2BH, Vero E6, 0.1 PFU/cell) was 50.0 µg/mL (≈ 45.8 µM); in the data set with HSV-1L2 (HSV-1L2, Vero E6, 0.1 PFU/cell), above 25.0 µg/mL. For the same compound, the CC50 in the data set with B95-8 cells was above 20 µg/mL; in the data set on MDCK cells it was 93.13 µg/mL (≈ 85.2 µM); in the data set with Vero E6 cells, 69.62 µg/mL (≈ 63.7 µM). For the same compound, the “Δ(lgTCID50)max” value in [7] is 1.0.

Regarding `CC(C)(C)[C@H](NC(=O)C(F)(F)F)C(=O)N1C[C@H]2[C@@H]([C@H]1C(=O)N[C@H](C#N)C[C@@H]1CCNC1=O)C2(C)C` [Nirmatrelvir, reference compound], in data set [8], the IC50 came to 0.1 µg/mL (≈ 0.2 µM) and the “Δ(lgTCID50)max” value turned out to be 6.0. This compound also yielded a CC50 in data set [10] above 20 µg/mL.

The values above are taken from article PMC12607321, “Sumac Polyphenols as Pan-Herpesvirus Inhibitors” (International Journal of Molecular Sciences, 2025).
